Results: patent US20120115912A1, “RXR AGONIST COMPOUNDS AND METHODS” (priority 2009, published 2012)
Read-outs that look alike come from different tables or passages of the source.

Assays:
primary microglia = test: Proteolytic degradation of Aβ by primary microglia; type: cell-based, murine; conditions: for intracellular Aβ levels: 24 hours drug then 18 hours with 2 μg/mL soluble Aβ
From the text: FIG. 5 illustrates graphs showing RXR agonists stimulate Aβ degradation.
Given the ability of RXR activation to drive LXR target gene expression, we predicted that agonist treatment should promote the proteolytic degradation of Aβ by microglia. […] Aβ uptake was unaffected by either drug treatment.

astrocytes = test: RXR mediated intracellular Aβ degradation with PPARγ or LXR inhibitors, astrocytes; type: cell-based; conditions: inhibitor pretreatment 1.5 hrs, Bexarotene 24 hours, 18 hours 2 ug/mL soluble Aβ
From the text: (§1) FIG. 14 illustrates graphs showing RXR mediated intracellular Aβ degradation is prevented by inhibiting PPARγ or LXR.
(§2) To determine which heterodimer partners are involved in RXR activation driven Aβ intracellular degradation, we inhibited PPARγ and LXR by competitive inhibitors, TO and 22-s-Hydroxycholesterol, respectively. Aβ degradation mediated by either microglia (A) or astrocytes (B) is inhibited with either inhibitor to PPAR or LXR. Additionally, a co-treatment with both inhibitors reduces Aβ degradation further (FIG. 14).

microglia = test: RXR mediated intracellular Aβ degradation with PPARγ or LXR inhibitors, microglia; type: cell-based; conditions: inhibitor pretreatment 1.5 hrs, Bexarotene 24 hours, 18 hours 2 ug/mL soluble Aβ
From the text: as §1, §2

ApoE = ApoE lipidation status in astrocyte conditioned media (native gel electrophoresis, Western); type: cell-based; conditions: confluent primary murine astrocytes, increasing doses, 48 hours
From the text: FIG. 4 illustrates an immunoassay showing ApoE lipidation status is increased after RXR agonist treatment. […] Conditioned media was subjected to native gel electrophoresis followed by Western analysis for ApoE.
Astrocyte conditioned media was collected and assessed by native gel electrophoresis. […]. (FIG. 4).

[1] = system: LXR target genes (ABCA1, ABCG1, ApoE); conditions: primary murine microglia, increasing doses, 24 hours
From the text: Cell lysates were subjected to Western analysis for ABCA1, ABCG1, ApoE, and GAPDH as a loading control.

[2] = humans, extended periods of use; cited from earlier work
ApoE knock out microglia = test: Intracellular Aβ degradation in ApoE knock out microglia; type: cell-based, murine
AD animal model = test: Contextual fear conditioning in AD animal model; conditions: 6 month old AD model mice, 100 mg/kg/day oral gavage, 7 days
Protocol: Wildtype littermates were used as a control and were orally gavaged with water for 7 days (n=5). Following treatment, animals underwent contextual fear conditioning. The number of times the animals froze over a two minute period was assessed after training.

primary astrocytes = test: Proteolytic degradation of Aβ by primary astrocytes; type: cell-based, murine
From the text: FIG. 12 illustrates a graph showing RXR agonist stimulate Aβ degradation in astrocytes.
As shown above, astrocytes can drive the expression of LXR target genes after RXR activation, we predicted that agonist treatment should also promote the intracellular degradation of Aβ by astrocytes. […]. Aβ uptake was not affected by drug treatments (data not shown).

[3] = system: LXR target genes (ABCA1, ABCG1, ApoE); test: RXR activation drives LXR target gene expression in primary astrocytes (Western analysis); conditions: primary murine astrocytes, increasing doses, 24 hours
From the text: Cell lysates were subjected to Western analysis for ABCA1, ABCG1 and ApoE. Actin served as a load control.

[4] = system: ApoE knock out astrocytes; test: Intracellular Aβ degradation in ApoE knock out astrocytes; type: cell-based, murine
[5] = system: LXR target genes, ABCA1 and ABCG1; conditions: murine model of mixed dyslipidemis; cited from earlier work
CD36 = test: Expression of PPARγ target gene CD36 in primary astrocytes (qRT-PCR); conditions: confluent primary murine astrocytes, 10 nM, time course
From the text: Cell lysates were subjected to quantitative RT-PCR. GAPDH served as a control.

[6] = therapeutic doses, FDA alert issued on May 21, 2007; cited from earlier work

Compound: CC1=C(/C=C/C(C)=C\C=C\C(C)=C\C(=O)O)C(C)(C)CCC1 [9cisRA]
- Aβ uptake (primary microglia): unaffected
- intracellular Aβ levels (primary microglia): dose-dependent reduction

Compound: CC(C)CC[C@H](O)[C@@H](C)[C@H]1CC[C@H]2[C@@H]3CC=C4C[C@@H](O)CC[C@]4(C)[C@H]3CC[C@]12C [22-s-Hydroxycholesterol]
- Bexarotene-driven Aβ degradation in presence of inhibitor (astrocytes): inhibited
- Bexarotene-driven Aβ degradation in presence of inhibitor (microglia): inhibited

Compound: C=C(c1ccc(C(=O)O)cc1)c1cc2c(cc1C)C(C)(C)CCC2(C)C [Bexarotene]
- lipidation status of ApoE (ApoE): increases the lipidation status of ApoE
- expression of ABCA1, ABCG1, and ApoE [1]: drives the expression of ABCA1, ABCG1, and ApoE
- clinical safety profile [2]: good safety profile
- intracellular Aβ degradation (ApoE knock out microglia; with exogenous 1 μg/mL ApoE): the effect of intracellular Aβ degradation returns
- intracellular Aβ degradation (ApoE knock out microglia; without ApoE): no effect
- contextual fear conditioning behavior (AD animal model): significantly improves behavior
- intracellular Aβ levels (primary astrocytes; 24 hours drug then 18 hours with 2 ug/mL soluble Aβ): dose dependent reduction
- Aβ uptake (primary astrocytes; data not shown): not affected
- expression of ABCA1, ABCG1, and ApoE [3]: drives the expression of ABCA1, ABCG1 and ApoE
- intracellular Aβ degradation ([4]; with exogenous 1 μg/mL ApoE): the effect of intracellular Aβ degradation returns
- intracellular Aβ degradation ([4]; without ApoE): no effect
- expression of the LXR target genes, ABCA1 and ABCG1 [5]: induce the expression of the LXR target genes, ABCA1 and ABCG1
- CD36 expression by qRT-PCR (CD36): drives CD36, a PPARγ regulated gene, expression
- Aβ uptake (primary microglia): unaffected
- intracellular Aβ levels (primary microglia): dose-dependent reduction

Compound: CN(CCOc1ccc(CC2SC(=O)NC2=O)cc1)c1ccccn1 (centres unmarked) [rosiglitazone, 5-[4-[2-(N-methyl-N-(2-pyridyl)amino]ethoxy]benzyl]thiazolidine-2,4-dione]
- risk of heart attack [6]: significantly increased risk of heart attack
